This is an account of results in patent US4772589A, “Etoposide solution in NMP” (Bristol-Myers, priority 1986, dated 1988).

Molecules are shown by their SMILES. In brackets after ≈: the same amount, converted by molar mass.

What is called solubility is the concentration that dissolves in the medium under given conditions.

For data set [1] the following is noted: water, ethanol, ether, chloroform, benzene, ethyl acetate, and carbon disulfide; cited from earlier work.
A short description of data set [2]: Etoposide solubility in various solvents. Format: physicochemical. The source says:
The high etoposide concentration achievable renders the solution useful as gelatin capsule fill. Table III compares the solubility of etoposide in various solvents.

For data set [3] the following is noted: oral gelatin capsule vs IV; cited from earlier work.
The nature of data set [4]: Crystallization on dilution with water or parenteral vehicle.

For the compound `CN1CCCC1=O` [1-Methyl-2-pyrrolidinone, 1-methyl-2-pyrrolidinone], the Miscibility entry in data set [1] is “miscible”.
Take `COc1cc([C@@H]2c3cc4c(cc3[C@@H](O[C@@H]3O[C@@H]5CO[C@@H](C)O[C@H]5[C@H](O)[C@H]3O)[C@H]3COC(=O)[C@H]23)OCO4)cc(OC)c1O` [etoposide, 4'-demethylepipodophyllotoxin-9-(4,6-O(R)-ethylidine-β-D-glucopyranoside)]: the solubility in data set [2] (1-methyl-2-pyrrolidinone, organic solvent or mixture, solvent: 1-Methyl-2-pyrrolidinone) was more than 500 mg/mL; in data set [2] (benzyl alcohol, organic solvent or mixture, solvent: Benzyl Alcohol), 104 mg/mL (≈ 177 mM); in data set [2] (dimethylisosorbide, organic solvent or mixture, solvent: Dimethylisosorbide), 320 mg/mL (≈ 544 mM); in data set [2] (ethanol, organic solvent or mixture, solvent: Ethanol), less than 1 mg/mL; in data set [2] (propylene glycol, organic solvent or mixture, solvent: Propylene Glycol), 11 mg/mL (≈ 18.7 mM); in data set [2] (water, solvent: Water), 0.1 mg/mL (≈ 0.17 mM). In data set [3], the “Gelatin capsule dose relative to IV dose for equivalent blood level” value is recorded as “twice as high”. Also, the “Crystallization on dilution with water” value is “rapid deposit of etoposide crystals” in data set [4] (solution in 1-ethyl-2-pyrrolidinone, diluted with water to 0.5-5 mg/ml); “rapid deposit of etoposide crystals” in data set [4] (solution in 2-pyrrolidinone, diluted with water to 0.5-5 mg/ml); “rapid deposit of etoposide crystals” in data set [4] (solution in dimethylacetamide, diluted with water to 0.5-5 mg/ml); “rapid deposit of etoposide crystals” in data set [4] (solution in dimethylformamide, diluted with water to 0.5-5 mg/ml); “rapid deposit of etoposide crystals” in data set [4] (solution in dimethylisosorbide, diluted with water to 0.5-5 mg/ml); “rapid deposit of etoposide crystals” in data set [4] (solution in ethanol, diluted with water to 0.5-5 mg/ml). The “Crystallization on dilution with water” value is “rapid deposit of etoposide crystals” in data set [4] (solution in polyethylene glycol-300, diluted with water to 0.5-5 mg/ml) and “rapid deposit of etoposide crystals” in data set [4] (solution in propylene glycol, diluted with water to 0.5-5 mg/ml).
